What is called IC50 is the concentration at which inhibition is half-maximal.

From PMC10454728, “A Comparative Study on the Lysosomal Cation Channel TMEM175 Using Automated Whole-Cell Patch-Clamp, Lysosomal Patch-Clamp, and Solid Supported Membrane-Based Electrophysiology: Functional Characterization and High-Throughput Screening Assay Development” (International Journal of Molecular Sciences, 2023) come the findings set out here.

Experiment [1] concerns the target T1, TMEM175 (Homo sapiens, UniProt Q9BSA9).
T1 sequence (Q9BSA9 1-504): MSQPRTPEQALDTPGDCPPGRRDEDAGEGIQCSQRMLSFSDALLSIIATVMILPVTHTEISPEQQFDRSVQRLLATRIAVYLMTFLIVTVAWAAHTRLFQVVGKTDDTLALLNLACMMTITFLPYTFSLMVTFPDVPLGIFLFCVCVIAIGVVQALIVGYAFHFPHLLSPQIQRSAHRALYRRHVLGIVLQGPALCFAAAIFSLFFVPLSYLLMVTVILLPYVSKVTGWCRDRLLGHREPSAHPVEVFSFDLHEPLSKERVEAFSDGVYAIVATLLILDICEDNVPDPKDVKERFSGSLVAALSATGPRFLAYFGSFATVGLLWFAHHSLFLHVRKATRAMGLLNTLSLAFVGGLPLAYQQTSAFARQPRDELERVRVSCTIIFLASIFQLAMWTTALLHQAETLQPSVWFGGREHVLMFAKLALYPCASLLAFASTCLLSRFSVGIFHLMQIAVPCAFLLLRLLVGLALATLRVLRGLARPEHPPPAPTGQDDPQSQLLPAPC
Nature of the experiment: SSME K+ flux on TMEM175 lysosomes (SURFE2R N1): pH, pH gradient, intra-lysosomal application.
Procedure: A solution exchange of 50 mM Na^+ against 50 mM K^+ was used to stimulate TMEM175. Datasets for each pH were measured on different sensors. […] Average peak currents and SEM, recorded from N = 5 sensors, are shown. Imax was fixed in the subsequent fitting with the equation I = Imax − (Imax − Imin)/(1 + (c/EC50)^n). […] Both datasets—symmetrical pH 7.6 (green) and pH gradient (blue) conditions—were recorded on the same sensor, with N = 5 sensors in total. […] Currents in the presence and the absence of a pH gradient were recorded with different sensors. Each sensor was used for four measurements in the following sequence: in the absence of compound, in the presence of 100 nM compound, in the presence of 10 µM compound, and in the absence of compound (wash-out). Datasets were normalized to the peak current recorded in the absence of compound before averaging. […] Sensors were prepared with TMEM175 lysosomes that were pre-loaded via 1:10 dilution in zinc containing non-activating solution, followed by 10 pulses of sonication as described in the Methods section (Section 4.2.5). […] The three different experimental conditions shown in one graph were applied on the same sensor. Average peak currents and SD from N = 4 sensors are shown, and no normalization was applied.
To test whether the pH is a relevant parameter affecting the efficacy of compounds, we tested the effect of compounds on TMEM175 currents under different pH conditions using the SURFE^2R N1 (Figure 9B–D).
To examine this, we conducted SSME experiments utilizing lysosomes that were pre-loaded with varying concentrations of zinc (Figure 9E). This enabled us to investigate the effects of zinc on TMEM175 activity when it interacts with the lysosomal side of TMEM175, closely simulating the conditions observed in whole-cell APC experiments (Figure 7E). […]
Datasets recorded with the SURFE^2R N1 are usually obtained with the same sensor, i.e., all concentration-dependent datapoints are obtained by sequential measurements. […]

Experiment [2] relates to control lysosomes expressing endogenous TMEM175. Nature of the experiment: SSME off-target compound effects on control lysosomes (SURFE2R 96SE). Type of experiment: biochemical, human. An excerpt: ; (A) Dose-response curves for SC-79; (B) Dose-response curves for cluster 1 compounds showing similar effects with all three technologies; (C) Dose-response curves for cluster 2 compounds showing no activity in LPC, but higher activity in APC; (D) Dose-response curves for cluster 3 compounds showing high activity in LPC, but lower activity in APC; For all assay technologies, datapoints were normalized to the current recorded before compound addition and averaged across at least N = 3 individual experiments. For clarity reasons, the SEM is not shown; the average relative SEM after averaging datapoints recorded with two highest compound concentrations is 35.6% for LPC data and 2.9% for SSME data. The APC data were acquired using a voltage application protocol distinct from the one depicted in Figure 7B, as described in the Methods section. Datasets were not corrected for artifacts (as observed in SSME) or off-target compound effects. For SSME data, we indicate the difference in the peak current when applying the four highest concentrations of a compound to control lysosomes (to assess off-target effects) compared to the current recorded with TMEM175 lysosomes prior to compound addition. […] Considerable off-target compound effects are observed when the given percentage approaches the percentage of enhancement recorded with the TMEM175 sample at the given compound concentration. […] . When an EC50 value was determined from the fit, it is highlighted by a vertical dotted line. […]
We also investigated the effect of the eight test compounds on the artifact currents recorded with control lysosomes using the SURFE^2R 96SE.
Artifact currents are typically in the range of −1 nA, while TMEM175 sample currents are +4 nA (Figure 1K). […] This corresponds to 3% to 30% of the current recorded with the TMEM175 sample in the absence of the compound. […]
a. For each single well, we performed an in-well normalization: the artifact corrected peak current obtained using a given condition is devided by the artifact corrected reference peak current recorded within the same well. b. […]

For experiment [3], the target named is T1, TMEM175. Nature of the experiment: SSME cation selectivity assay with 4-AP block (SURFE2R 96SE). It is filed as biochemical. Particulars: 10 mM 4-AP. An excerpt:
We performed the same experiment on lysosomes purified from HEK293 cells overexpressing TMEM175 (TMEM175 sample, Figure 2B) and control lysosomes that were purified from HEK293 cells expressing endogenous TMEM175 (control sample, Figure 2C), using a low sample dilution to enhance the signal-to-noise.
We also performed a similar series of experiments on the SURFE^2R 96SE, essentially reproducing the results found with the SURFE^2R N1 (Figure 2E). […] Supplementary Figure S2 contains representative current traces and additional experimental details.
We applied a solution exchange from 50 mM NMDG-Cl to 50 mM of a different Cl salt at pH 7.6; (B) Representative current traces recorded with the TMEM175 sample. All traces are recorded from the same sensor; (C) Representative current traces recorded with the control sample. Currents reflect background signals (artifacts) resulting from ion–membrane interactions; (D) Average peak currents and SD for N = 5 sensors recorded with the TMEM175 and control samples; (E) Average peak currents and SEM for N = 16 sensors, recorded with the TMEM175 (left) and control (right) sample. […]
Ion selectivity of TMEM175 recorded on the SURFE2R 96SE. Representative current traces recorded using different cation species on TMEM175 and control samples using the SURFE2R 96SE. […]

`[Cl-].[Cl-].[Zn+2]` [Zn, ZnCl2]: the “Effect at 50 µM, SSME” value in experiment [1] (50 µM zinc, lysosomal side (similar to external application)) is reported as “did not observe any effect”. Further, the IC50 in experiment [1] (read-out: IC50, intra-lysosomal application, SSME (SURFE2R N1), lysosomes pre-loaded with zinc, zinc only inside) was 700 ± 300 µM. In experiment [2] (in-plate control, Figure S5), the “Off-target effect of zinc on control lysosomes (SURFE2R 96SE)” value is “small off-target inhibition”.

In the case of `Nc1ccncc1` [4-AP, 4-aminopyridine], the “Block of TMEM175 net currents for K+, Rb+ and Cs+” value in experiment [3] is recorded as “complete blockade”. In experiment [1] (pH 4.0 (no TMEM175 activity at this pH)), the “Effect of 4-AP, SSME (SURFE2R N1)” value was “no effect”.

`CCCCC1(C2CCCC2)Cc2cc(OCCCC(=O)O)c(Cl)c(Cl)c2C1=O` (stereo not shown) [DCPIB]: the “Off-target effect of DCPIB on control lysosomes (SURFE2R 96SE)” value was “did not have an effect” in experiment [2] (20 µM and below); “off-target inhibition” in experiment [2] (60 µM DCPIB, Figure S5).
